According to ChEMBL document CHEMBL4138105, “LL-37-derived short antimicrobial peptide KR-12-a5 and its d-amino acid substituted analogs with cell selectivity, anti-biofilm activity, synergistic effect with conventional antibiotics, and anti-inflammatory activity” (Eur J Med Chem, 2017):
In brackets after ≈: the same amount, converted by molar mass. Activity calls are given as the source filed them. No cut-off for these calls is given here.

How the values were obtained:
[1] = tested on: RAW264.7; assay: Cytotoxicity against mouse RAW264.7 cells up to 128 uM after 48 hrs by MTT assay; assay type: cell-based; conditions: raw264.7, 48 h
[2] = tested on: Erythrocyte; assay: Hemolytic activity in human RBC after 1 hr; assay type: ADME, cell-based
[3] = tested on: Staphylococcus aureus; assay: Antibacterial activity against Staphylococcus aureus KCTC 1621 assessed as cytoplasmic membrane depolarization at 2 times MIC by disC3-5 dye based fluorescence assay; assay type: functional, organism-based
[4] = tested on: Staphylococcus aureus; assay: Antibacterial activity against methicillin resistant Staphylococcus aureus CCARM 3090 after 24 hrs; assay type: functional; conditions: CCARM 3090, 24 h
[5] = tested on: Staphylococcus aureus; assay: Antibacterial activity against Staphylococcus aureus KCTC 1621 in presence of 2.5 mM CaCl2 after 24 hrs; assay type: functional; conditions: KCTC 1621, 24 h
[6] = tested on: RAW264.7; assay: Anti-inflammatory activity in mouse RAW264.7 cells assessed as reduction in LPS-induced IL-6 mRNA expression at 10 uM after 3 hrs by RT-PCR analysis; assay type: functional, cell-based
[7] = tested on: Staphylococcus aureus; assay: Potency index, ratio of LL-37 MIC to compound MIC for methicillin resistant Staphylococcus aureus CCARM 3095; assay type: functional
[8] = tested on: Escherichia coli; assay: Antibacterial activity against Escherichia coli KCTC 1682 after 24 hrs; assay type: functional; conditions: KCTC 1682, 24 h
[9] = tested on: Pseudomonas aeruginosa; assay: Antibacterial activity against Pseudomonas aeruginosa KCTC 1637 after 24 hrs; assay type: functional; conditions: KCTC 1637, 24 h
[10] = tested on: RAW264.7; assay: Anti-inflammatory activity in mouse RAW264.7 cells assessed as reduction in LPS-induced MCP-1 production at 10 to 20 uM preincubated for 1 hr followed by LPS stimulation measured after 6 hrs by ELISA; assay type: functional, cell-based
[11] = tested on: Escherichia coli; assay: Antibacterial activity against Escherichia coli KCTC 1682 in presence of 2.5 mM CaCl2 after 24 hrs; assay type: functional; conditions: KCTC 1682, 24 h
[12] = tested on: Staphylococcus aureus; assay: Ratio of MIC for Staphylococcus aureus KCTC 1621 in presence of 20% human serum to MIC for Escherichia coli KCTC 1682 in presence of 20% human serum; assay type: functional
[13] = tested on: RAW264.7; assay: Anti-inflammatory activity in mouse RAW264.7 cells assessed as reduction in LPS-induced IL-6 production at 10 to 20 uM preincubated for 1 hr followed by LPS stimulation measured after 6 hrs by ELISA; assay type: functional, cell-based
[14] = tested on: Bacillus subtilis; assay: Antibacterial activity against Bacillus subtilis KCTC 3068 after 24 hrs; assay type: functional; conditions: KCTC 3068, 24 h
[15] = tested on: Staphylococcus aureus; assay: Antibacterial activity against Staphylococcus aureus KCTC 1621 in presence of 4.5 mM KCl after 24 hrs; assay type: functional; conditions: KCTC 1621, 24 h
[16] = tested on: Pseudomonas aeruginosa; assay: Potency index, ratio of LL-37 MIC to compound MIC for multidrug-resistant Pseudomonas aeruginosa CCARM 2109; assay type: functional
[17] = tested on: Staphylococcus aureus; assay: Potency index, ratio of melittin MIC to compound MIC for methicillin resistant Staphylococcus aureus CCARM 3089; assay type: functional
[18] = tested on: Pseudomonas aeruginosa; assay: Antibacterial activity against multidrug-resistant Pseudomonas aeruginosa CCARM 2109 after 24 hrs; assay type: functional; conditions: CCARM 2109, 24 h
[19] = tested on: Pseudomonas aeruginosa; assay: Synergistic antibacterial activity against multidrug-resistant Pseudomonas aeruginosa CCARM 2095 after 72 hrs in presence of ciprofloxacin by chequerboard assay; assay type: functional
[20] = tested on: Pseudomonas aeruginosa; assay: Potency index, ratio of LL-37 MBIC90 to compound MBIC90 for antibiofilm activity against multidrug-resistant Pseudomonas aeruginosa CCARM 2095; assay type: functional
[21] = tested on: Enterococcus faecium; assay: Potency index, ratio of melittin MIC to compound MIC for Vancomycin-resistant Enterococcus faecium ATCC 51559; assay type: functional
[22] = tested on: Staphylococcus aureus; assay: Potency index, ratio of LL-37 MIC to compound MIC for methicillin resistant Staphylococcus aureus CCARM 3090; assay type: functional
[23] = tested on: Staphylococcus aureus; assay: Antibacterial activity against Staphylococcus aureus KCTC 1621 after 24 hrs; assay type: functional; conditions: KCTC 1621, 24 h
[24] = tested on: Staphylococcus aureus; assay: Antibacterial activity against methicillin resistant Staphylococcus aureus CCARM 3095 after 24 hrs; assay type: functional; conditions: CCARM 3095, 24 h
[25] = tested on: Staphylococcus epidermidis; assay: Antibacterial activity against Staphylococcus epidermidis KCTC 1917 after 24 hrs; assay type: functional; conditions: KCTC 1917, 24 h
[26] = tested on: Escherichia coli; assay: Antibacterial activity against Escherichia coli KCTC 1682 in presence of 20% human serum after 24 hrs; assay type: functional; conditions: KCTC 1682, 24 h
[27] = tested on: RAW264.7; assay: Anti-inflammatory activity in mouse RAW264.7 cells assessed as reduction in LPS-induced MCP-1 mRNA expression at 10 uM after 3 hrs by RT-PCR analysis; assay type: functional, cell-based
[28] = tested on: Staphylococcus aureus; assay: Potency index, ratio of melittin MIC to compound MIC for methicillin resistant Staphylococcus aureus CCARM 3095; assay type: functional
[29] = tested on: Escherichia coli; assay: Antibacterial activity against Escherichia coli KCTC 1682 in presence of 150 mM NaCl after 24 hrs; assay type: functional; conditions: KCTC 1682, 24 h
[30] = tested on: Staphylococcus aureus; assay: Antibacterial activity against Staphylococcus aureus KCTC 1621 in presence of 1 mM MgCl2 after 24 hrs; assay type: functional; conditions: KCTC 1621, 24 h
[31] = tested on: Escherichia coli; assay: Antibacterial activity against Escherichia coli KCTC 1682 in presence of 4.5 mM KCl after 24 hrs; assay type: functional; conditions: KCTC 1682, 24 h
[32] = tested on: Staphylococcus aureus; assay: Antibacterial activity against Staphylococcus aureus KCTC 1621 assessed as cell membrane disruption at 2 times MIC within 4 mins by Sytox Green dye based fluorescence spectrophotometer assay; assay type: functional, organism-based
[33] = tested on: Pseudomonas aeruginosa; assay: Potency index, ratio of melittin MIC to compound MIC for multidrug-resistant Pseudomonas aeruginosa CCARM 2109; assay type: functional
[34] = tested on: RAW264.7; assay: Anti-inflammatory activity in mouse RAW264.7 cells assessed as reduction in LPS-induced TNF-alpha production at 10 to 20 uM preincubated for 1 hr followed by LPS stimulation measured after 6 hrs by ELISA; assay type: functional, cell-based
[35] = tested on: Staphylococcus aureus; assay: Potency index, ratio of melittin MIC to compound MIC for methicillin resistant Staphylococcus aureus CCARM 3090; assay type: functional
[36] = tested on: Staphylococcus aureus; assay: Antibacterial activity against Staphylococcus aureus KCTC 1621 in presence of 20% human serum after 24 hrs; assay type: functional; conditions: KCTC 1621, 24 h
[37] = tested on: NIH3T3; assay: Cytotoxicity against mouse NIH/3T3 cells up to 128 uM after 48 hrs by MTT assay; assay type: cell-based; conditions: nih3t3, 48 h
[38] = tested on: Pseudomonas aeruginosa; assay: Synergistic antibacterial activity against multidrug-resistant Pseudomonas aeruginosa CCARM 2095 after 72 hrs in presence of oxacillin by chequerboard assay; assay type: functional
[39] = tested on: Enterococcus faecium; assay: Antibacterial activity against Vancomycin-resistant Enterococcus faecium ATCC 51559 after 24 hrs; assay type: functional; conditions: ATCC 51559, 24 h
[40] = tested on: RAW264.7; assay: Anti-inflammatory activity in mouse RAW264.7 cells assessed as reduction in LPS-induced TNF-alpha mRNA expression at 10 uM after 3 hrs by RT-PCR analysis; assay type: functional, cell-based
[41] = tested on: Pseudomonas aeruginosa; assay: Potency index, ratio of melittin MIC to compound MIC for multidrug-resistant Pseudomonas aeruginosa CCARM 2095; assay type: functional
[42] = tested on: RAW264.7; assay: Anti-inflammatory activity in mouse RAW264.7 cells assessed as reduction in LPS-induced nitric oxide production at 10 to 20 uM after 24 hrs by Griess assay; assay type: functional, cell-based
[43] = tested on: Lipid bilayer; assay: Binding affinity to EYPE/EYPG small unilamellar vesicles assessed as intrinsic tryptophan acrylamide quenching constant by fluorescence assay (reference value: 5.95 to 7.56 /M)
[44] = tested on: Escherichia coli; assay: Antibacterial activity against Escherichia coli KCTC 1682 in presence of 6 uM NH4Cl after 24 hrs; assay type: functional; conditions: KCTC 1682, 24 h

For `CC[C@H](C)[C@H](NC(=O)[C@H](CCCNC(=N)N)NC(=O)[C@@H](N)CCCCN)C(=O)N[C@H](C(=O)N[C@@H](CCCCN)C(=O)N[C@H](CC(C)C)C(=O)N[C@H](C(=O)N[C@@H](CC(C)C)C(=O)N[C@@H](CCCCN)C(=O)N[C@@H](Cc1c[nH]c2ccccc12)C(=O)N[C@@H](CC(C)C)C(=O)N[C@@H](CCCNC(=N)N)C(N)=O)[C@@H](C)CC)C(C)C`, the Activity [1] was “Non-Toxic”, the MHC10 [2] was 202 µM and the Activity [3] was “Active”. For the same compound, the MIC [4] was 4 µM (≈ 6.26 µg/mL), the MIC [5] was 8 µM and the Activity [6] was “Active”. For the same compound, the Ratio [7] was 2 - 4, the MIC [8] was 4 µM (≈ 6.26 µg/mL) and the MIC [9] was 4 µM (≈ 6.26 µg/mL). For the same compound, the Activity [10] was “Active”, the MIC [11] was 16 µM and the Ratio [12] was 2 - 8. The Activity [13] was “Active”, the MIC [14] was 4 µM (≈ 6.26 µg/mL) and the MIC [15] was 2 µM. The Ratio [16] was 2 - 4, the Ratio [17] was 2 - 4 and the MIC [18] was 4 µM (≈ 6.26 µg/mL). The “fractional inhibitory concentration index (FICI)” value [19] was 0.3125, the “fold change (FC)” value [20] was 4 - 8 and the Ratio [21] was 2 - 4. The Ratio [22] was 2 - 4, the MIC [23] was 2 µM (≈ 3.13 µg/mL) and the MIC [24] was 4 µM (≈ 6.26 µg/mL). The MIC [25] was 4 µM (≈ 6.26 µg/mL), the MIC [26] was 8 µM and the Activity [27] was “Active”. The Ratio [28] was 2 - 4, the MIC [29] was 4 µM and the MIC [30] was 4 µM. For the same compound, the MIC [31] was 4 µM, the Activity [32] was “Active” and the Ratio [33] was 2 - 4. For the same compound, the Activity [34] was “Active”, the Ratio [35] was 2 - 4 and the MIC [36] was 16 µM. The Activity [37] was “Non-Toxic”, the “fractional inhibitory concentration index (FICI)” value [38] was 0.5 and the MIC [39] was 4 µM (≈ 6.26 µg/mL). The Activity [40] was “Active”, the Ratio [41] was 2 - 4 and the Activity [42] was “Active”. For the same compound, the KSV [43] was 0.97 M⁻¹ and the MIC [44] was 4 µM.
